Data on two compounds can be found in publication PMC6941357, “An in vitro toolbox to accelerate anti-malarial drug discovery and development” (Malaria Journal, 2020).

The subject of data set [1] is human liver microsomes. To be noted: ref 79 (DSM265), 78 (DSM421); cited from earlier work.
The conditions of data set [2]: ref 77 (M5717), 78 (DSM421), 79 (DSM265); cited from earlier work.
The next data set concerns 10% FCS in DMEM. Description: Binding in DMEM with 10% FCS via ultracentrifugation. The class given is in vitro ADME, calf. The protocol:
(§1) Dulbecco’s Modified Eagle’s Medium (DMEM) containing GlutaMAX-I was purchased from Invitrogen (Thermo Fisher Scientific) and stored at 4 °C. Medium was prepared by adding heat inactivated foetal calf serum (FCS, final 10% v/v), penicillin (final 100 U/mL), streptomycin (final 100 µg/mL) D-glucose (final 4.0 mg/mL) and sodium pyruvate (final 0.1 mg/mL).
(§2) An ultracentrifugation method adapted from a previous publication was initially used to assess plasma protein binding and binding in the other media. […] Additional ultracentrifuge tubes containing spiked matrix were maintained at 37 °C, 5% or 10% CO2 or normal atmosphere conditions, with aliquots being taken within 0.5 h of the start and at the end of ultracentrifugation to serve as controls for the assessment of stability and to obtain a measure of the total concentration (Ctotal). Following ultracentrifugation, the pH was checked and an aliquot of protein-free supernate was taken from each ultracentrifuge tube for determination of the unbound concentration (Cunbound).
(§3) Total matrix and protein free samples were analysed using a matrix matching approach whereby each sample was mixed in a 1:1 ratio with the opposite blank medium (i.e. blank total matrix or blank protein free buffer). For example, plasma samples were mixed with blank pH 7.4 buffer whereas plasma supernatant samples were mixed with blank plasma. Each of the sample sets were then assayed against a common calibration curve prepared in a 1:1 mixture of total matrix and protein free pH 7.4 buffer. […] The standard deviation for fu was calculated using the propagation of errors approach as described previously. The potential for compound degradation was assessed by comparing the average value for Ctotal at the start and end of the experiment.

The target in a further data set is CYP2C19 (Homo sapiens, UniProt P33261). Details: from tissue; host or cells: human liver microsomes. To be noted: human liver microsomes, cited from earlier work. A general note: Liver microsomes are vesicles of endoplasmic reticulum, rich in cytochrome P450 enzymes.
Sequence of CYP2C19 (P33261 whole entry): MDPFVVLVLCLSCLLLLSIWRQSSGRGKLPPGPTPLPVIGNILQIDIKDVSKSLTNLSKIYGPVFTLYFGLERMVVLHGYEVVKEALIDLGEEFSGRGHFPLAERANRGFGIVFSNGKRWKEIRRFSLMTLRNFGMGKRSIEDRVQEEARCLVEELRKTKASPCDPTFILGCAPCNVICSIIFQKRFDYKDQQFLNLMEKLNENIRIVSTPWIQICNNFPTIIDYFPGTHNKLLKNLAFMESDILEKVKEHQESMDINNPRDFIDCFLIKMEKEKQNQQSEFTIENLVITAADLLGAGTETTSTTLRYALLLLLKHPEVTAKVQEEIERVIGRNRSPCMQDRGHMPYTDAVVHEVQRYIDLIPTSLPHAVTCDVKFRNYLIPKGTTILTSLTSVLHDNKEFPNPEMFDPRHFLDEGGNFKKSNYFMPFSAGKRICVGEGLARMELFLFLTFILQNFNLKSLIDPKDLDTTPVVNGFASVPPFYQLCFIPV
The next data set has as its target CYP3A4 (Homo sapiens, UniProt P08684). On the set-up: from tissue; host or cells: human liver microsomes. To be noted: human liver microsomes, CYP3A4 (test), cited from earlier work; for IC50: read-out: CYP3A4 (test) IC50.
In another data set the target is CYP2D6 (Homo sapiens, UniProt P10635). Details: from tissue; host or cells: human liver microsomes. To be noted: human liver microsomes; cited from earlier work.
Sequence of CYP2D6 (P10635 whole entry): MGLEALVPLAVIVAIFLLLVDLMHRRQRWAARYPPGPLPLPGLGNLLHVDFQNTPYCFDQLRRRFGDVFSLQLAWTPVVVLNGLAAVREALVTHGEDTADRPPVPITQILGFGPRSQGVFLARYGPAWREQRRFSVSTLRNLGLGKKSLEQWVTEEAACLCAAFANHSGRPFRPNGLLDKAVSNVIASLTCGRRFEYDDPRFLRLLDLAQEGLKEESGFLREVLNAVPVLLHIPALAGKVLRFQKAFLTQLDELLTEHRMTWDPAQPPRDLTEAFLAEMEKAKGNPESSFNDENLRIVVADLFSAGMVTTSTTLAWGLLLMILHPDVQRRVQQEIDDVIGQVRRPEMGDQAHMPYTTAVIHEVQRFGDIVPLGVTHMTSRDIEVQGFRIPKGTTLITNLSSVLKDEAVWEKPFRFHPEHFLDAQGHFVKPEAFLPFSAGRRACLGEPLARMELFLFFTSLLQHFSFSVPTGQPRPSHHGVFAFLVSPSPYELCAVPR
A further data set has as its target CYP2C9 (Homo sapiens, UniProt P11712). Details: from tissue; host or cells: human liver microsomes. Conditions: human liver microsomes; cited from earlier work.
The test system of the next data set is human plasma. Briefly: Plasma protein binding via ultracentrifugation (UC). The class given is in vitro ADME. Conditions: ultracentrifugation, neat plasma. In outline: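 Unbound fraction from ultracentrifugation of spiked pooled donor plasma, supernate pH checked and sampled for Cunbound. Ctotal and degradation taken from 37 °C control tubes at start and end; all samples mixed 1:1 with blank plasma or pH 7.4 buffer before analysis on shared calibration.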

The next data set has as its target T1, CYP1A2 (Homo sapiens, UniProt P05177).
T1 sequence (P05177 1-516): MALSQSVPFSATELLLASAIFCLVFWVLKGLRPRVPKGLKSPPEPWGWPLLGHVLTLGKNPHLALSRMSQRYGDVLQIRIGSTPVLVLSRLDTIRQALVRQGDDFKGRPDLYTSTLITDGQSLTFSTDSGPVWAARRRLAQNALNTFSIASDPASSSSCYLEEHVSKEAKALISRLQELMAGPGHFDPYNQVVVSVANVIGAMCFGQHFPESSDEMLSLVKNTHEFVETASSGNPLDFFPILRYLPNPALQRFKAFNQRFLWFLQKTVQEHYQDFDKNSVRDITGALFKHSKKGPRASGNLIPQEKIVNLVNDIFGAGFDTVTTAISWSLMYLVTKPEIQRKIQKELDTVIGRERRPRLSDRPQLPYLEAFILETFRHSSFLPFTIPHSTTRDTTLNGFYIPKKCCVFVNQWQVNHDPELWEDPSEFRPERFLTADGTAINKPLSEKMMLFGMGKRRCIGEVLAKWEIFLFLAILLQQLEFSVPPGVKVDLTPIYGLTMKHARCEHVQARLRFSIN
On the set-up: from tissue; host or cells: human liver microsomes. Conditions: human liver microsomes, cited from earlier work; for CYP1A2 % inhibition at max conc: nmi = no measurable inhibition.

On the set-up of data set [3]: method as in earlier work. To be noted: octanol/pH 7.4 buffer; ref 77 (M5717), 78 (DSM421); cited from earlier work.
For data set [4], the system named is human liver microsomes. Conditions: human liver microsomes; < 15% loss over 60 min; cited from earlier work.
Data set [5] in a line: Binding in DMEM with 10% FCS via ultracentrifugation. Type of data set: in vitro ADME, calf. To be noted: bovine, DMEM with 10% FCS, pH 7.4. The protocol: as §1, §2, §3
Data set [6] deals with T2, Albumax medium (lipid rich bovine serum albumin) (Bos taurus, UniProt P02769).
T2 construct: purchased Gibco, Thermo Fisher Scientific
T2 sequence (P02769 25-607): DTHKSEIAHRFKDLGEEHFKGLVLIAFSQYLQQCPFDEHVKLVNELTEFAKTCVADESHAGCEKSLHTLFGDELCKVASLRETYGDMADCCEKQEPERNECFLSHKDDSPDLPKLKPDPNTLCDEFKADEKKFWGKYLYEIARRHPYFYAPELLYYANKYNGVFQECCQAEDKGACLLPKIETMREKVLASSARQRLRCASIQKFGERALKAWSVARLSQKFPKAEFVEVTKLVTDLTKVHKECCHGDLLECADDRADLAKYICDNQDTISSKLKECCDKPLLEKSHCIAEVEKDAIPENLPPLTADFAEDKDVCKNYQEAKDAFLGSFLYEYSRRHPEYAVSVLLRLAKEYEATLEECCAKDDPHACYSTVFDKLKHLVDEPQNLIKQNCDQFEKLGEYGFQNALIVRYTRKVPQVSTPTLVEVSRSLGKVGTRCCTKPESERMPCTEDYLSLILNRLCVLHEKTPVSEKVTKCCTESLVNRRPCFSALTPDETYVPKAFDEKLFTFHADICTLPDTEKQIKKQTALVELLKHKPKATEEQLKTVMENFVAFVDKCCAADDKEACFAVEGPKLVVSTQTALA
Details: method as in PMID 26180101. To be noted: cited from earlier work.

Where “and” joins values, the source holds several entries; their conditions need not be identical. Equal values may be shown once. Read-outs that look alike come from different tables or passages of the source. Marks after values point to notes of the source that are not given here.

Sequence of CYP2C9 (P11712 whole entry): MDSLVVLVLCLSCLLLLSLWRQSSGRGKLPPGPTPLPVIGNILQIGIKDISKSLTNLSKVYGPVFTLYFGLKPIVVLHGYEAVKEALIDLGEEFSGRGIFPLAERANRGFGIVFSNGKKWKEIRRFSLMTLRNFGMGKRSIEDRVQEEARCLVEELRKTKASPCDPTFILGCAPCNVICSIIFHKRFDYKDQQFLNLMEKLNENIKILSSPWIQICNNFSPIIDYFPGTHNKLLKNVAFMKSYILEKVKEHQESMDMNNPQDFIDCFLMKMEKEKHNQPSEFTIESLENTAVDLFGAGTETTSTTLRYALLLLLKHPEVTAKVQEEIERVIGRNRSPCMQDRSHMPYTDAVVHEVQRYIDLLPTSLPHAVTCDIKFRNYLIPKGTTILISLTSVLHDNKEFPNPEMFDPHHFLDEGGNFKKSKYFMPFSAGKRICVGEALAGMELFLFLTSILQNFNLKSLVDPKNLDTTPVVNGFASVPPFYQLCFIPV
Sequence of CYP3A4 (P08684 whole entry): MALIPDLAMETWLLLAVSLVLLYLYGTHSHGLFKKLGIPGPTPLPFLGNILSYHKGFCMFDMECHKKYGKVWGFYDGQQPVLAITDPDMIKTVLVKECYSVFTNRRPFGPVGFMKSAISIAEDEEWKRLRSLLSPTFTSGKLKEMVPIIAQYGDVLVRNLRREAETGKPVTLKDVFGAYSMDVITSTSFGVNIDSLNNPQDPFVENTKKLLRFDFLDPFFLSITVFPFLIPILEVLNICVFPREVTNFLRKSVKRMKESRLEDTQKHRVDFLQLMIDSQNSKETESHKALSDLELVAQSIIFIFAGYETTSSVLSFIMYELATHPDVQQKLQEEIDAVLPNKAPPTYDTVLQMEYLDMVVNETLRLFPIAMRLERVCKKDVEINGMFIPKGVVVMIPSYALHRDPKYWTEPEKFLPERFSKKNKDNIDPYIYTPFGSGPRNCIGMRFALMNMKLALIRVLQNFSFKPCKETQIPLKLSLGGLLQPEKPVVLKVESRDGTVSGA

`Cc1cc(Nc2ccc(C(F)(F)F)nc2)n2nc(C(C)(F)F)nc2n1` [DSM421]: the “Fraction unbound, HLM” value in the data set with human liver microsomes [1] is on record as 0.77 ± 0.065^f. In data set [2], the “Solubility FaSSGF (1 h)” value was 116 µg/mL and 324 µM; the “Solubility FaSSIF-V2 (5–6 h)” value is 92.7 µg/mL and 259 µM; the “Solubility FeSSIF-V2 (5–6 h)” value is 119 µg/mL and 332 µM. Besides, the “Fraction unbound, 10% FCS in DMEM” value in the data set on 10% FCS in DMEM was 0.615 ± 0.043. Also, on CYP2C19, the IC50 is above 20 µM. Further, the “CYP2C19 % inhibition at max conc” value on CYP2C19 (nmi = no measurable inhibition) is on record as “nmi”. Besides, the “CYP3A4 (test) % inhibition at max conc” value at CYP3A4 (nmi = no measurable inhibition) is “nmi”. Also, the IC50 on CYP3A4 was above 20 µM. At CYP2D6, the “CYP2D6 % inhibition at max conc” value was 33% and the IC50 was above 20 µM. Further, at CYP2C9, the “CYP2C9 % inhibition at max conc” value was 16% and the IC50 is above 20 µM. Moreover, the “Fraction unbound, human plasma” value in the data set with human plasma was 0.039 ± 0.007. In addition, at CYP1A2, the IC50 was above 20 µM and the “CYP1A2 % inhibition at max conc” value was “nmi”. The “Measured Log D7.4” value in data set [3] is reported as 2.36 ^g.

As for `Cc1cc(Nc2ccc(S(F)(F)(F)(F)F)cc2)n2nc(C(C)(F)F)nc2n1` [DSM265], the “Fraction unbound, HLM” value in the data set with human liver microsomes [1] is 0.28 ± 0.0070^f. For the same compound, the “HLM CLint” value in the data set on human liver microsomes [4] was < 7^b,e µL/min/mg. Besides, the “Solubility FaSSIF-V2 (5–6 h)” value in [2] is 5.12 µg/mL and 12.3 µM. In addition, in data set [5], the fraction unbound at […], 1000 ng/mL amounted to 0.366 ± 0.041. For the same compound, at CYP2C19, the “CYP2C19 % inhibition at max conc” value was 19% and the IC50 is above 20 µM. The “Fraction unbound, Albumax” value in data set [6] is recorded as 0.18 ± 0.0050^f. In addition, at CYP3A4, the “CYP3A4 (test) % inhibition at max conc” value was 34% and the IC50 was above 20 µM. Further, on CYP2D6, the IC50 was 7.1 µM and the Ki was 4.4 µM. Moreover, on CYP2C9, the “CYP2C9 % inhibition at max conc” value is listed as 25% and the IC50 was above 20 µM. At CYP1A2, the IC50 was above 20 µM and the “CYP1A2 % inhibition at max conc” value is recorded as “nmi”.

As usually defined, the IC50 is the concentration at which inhibition is half-maximal. By fraction unbound is commonly meant free concentration divided by total concentration. The low end stands for extensive binding, the high end for weak binding. A word on the Ki: it is the equilibrium dissociation constant of an inhibitor or competing ligand from its target.
